These results are taken from US20220160686A1, “MACROCYCLIC AZOLOPYRIDINE DERIVATIVES AS EED AND PRC2 MODULATORS” (Fulcrum Therapeutics, Inc., priority 2019, published 2022).

As usually defined, the IC50 is the concentration needed to halve the response being measured.

In the series the test system is human P-glycoprotein HEK cells (HEK-P-gp). Briefly: H3K27me3 immunocytochemistry assay in P-gp expressing HEK293T cells, with or without elacridar. It counts as cell-based. The method, then: A plasmid encoding the human ABCB1 gene under the control of a CMV promoter was purchased from Origene (Cat #RC216080). The HEK293T cells were purchased from ATCC (Cat #CRL-3216) and were cultured for expansion in the recommended conditions. The HEK293T cells were transfected with 2 ug of the pCMV-ABCB1 plasmid using Lipofectamine 3000 following recommendations from the manufacturer (ThermoFisher Scientific, Cat #L3000008). After 24 h, cells were dissociated, and 5000 cells were seeded on a 10 cm tissue culture dish. On the next day, fresh media containing 5 nM Vinblastine (Sigma, Cat #V1377) was added, and media containing compound was replenished every 72 h. After surviving cells reached confluency, cells were passaged, and lines were maintained in the presence of 2.5 nM Vinblastine until further characterization.
P-gp expressing HEK293T, HUDEP2, and Human Mobilized Peripheral Blood Primary CD34+ cells were cultured for use in an H3K27me3 immunocytochemistry assay. HUDEP2 and Human Mobilized Peripheral Blood Primary CD34+ cells were cultured for use in an HbF immunocytochemistry assay. P-gp expressing HEK293T cells were maintained and passaged every 3-4 days by plating 300,000 viable cells in a T-25 culture flask containing 6 mLs of 293 Passaging Media comprised of DMEM (ThermoFisher #10566016), 10% fetal bovine serum (ThermoFisher #A3160502), 1% penicillin-streptomycin (ThermoFisher #15140122), and 2.5 nM Vinblastine (Sigma #V1377). To evaluate the inhibitory effect of the compounds of the present disclosure and their brain penetrant properties via P-gp mediated efflux, the H3K27me3 immunocytochemistry assay was conducted in the presence or absence of 250 nM of the P-gp inhibitor, elacridar. Poor brain penetrant compounds were expected to show higher potencies in the presence of Elacridar. However, brain penetrant compounds would show similar potencies irrespective of whether Elacridar is present or not. In these experiments plates without elacridar were seeded with P-gp expressing HEK293T cells at 1000 viable cells per well in a poly-d-lysine coated 384-well plate (Corning Cat #356697) in 45 μL of 293 Assay Media comprised of DMEM (ThermoFisher #10566016), 10% fetal bovine serum (ThermoFisher #A3160502), 1% penicillin-streptomycin (ThermoFisher #15140122). A replicate set of plates were seeded under the same conditions with 45 μL of 293 Assay Media supplemented with 250 nM of Elacridar to inhibit P-gp activity. Compounds were serially diluted at 10× concentration in 293 Media, and 5 μL transferred to their respective wells on both sets of plates for a total volume of 50 μL per well. The compound treated HEK293T cells were allowed to incubate for 4 days at 37° C., 85% relative humidity, and 5% CO2 before proceeding to ICC Fix and Stain protocol.
The Fix and Stain Protocol was the same for HEK293T, HUDEP2, and Primary CD34+ cell assays except the specific primary and secondary antibodies used for detection. Following 4 days of compound treatment, the respective plates were washed once with 25 μL of PBS (ThermoFisher #10010023) and fixed with 25 μL of 4% paraformaldehyde (ThermoFisher #28908) for 10 minutes at room temperature. The plates were then washed three times with 25 μL of PBS. Subsequent to that, the cells were permeabilized and blocked for 1 hour at room temperature in 25 μL of Perm/Block buffer comprised of IX PBS, 1% bovine serum albumin (ThermoFisher #A3294), 10% fetal bovine serum (ThermoFisher #A3160502), 0.3M glycine (Sigma #G7126), and 0.1% tween-20 (Sigma #P7949). This was followed by additional washing (three times) of the plates with 25 μL of 0.1% tween in PBS.
For the H3K27me3 assay, the cells were incubated overnight at 4° C. with 25 μL of H3K27me3 Primary Antibody (Cell Signaling #9733) diluted 1:200 in 0.1% tween-20 in PBS. […]

Where [1] appears, read: Homo sapiens, HEK293, 96 h, without elacridar, 4 days compound treatment, read-out: IC50, inhibitory activity on human P-glycoprotein HEK cells (HEK-P-gp).
The mark [2] stands for this setting: Homo sapiens, HEK293, with 250 nM elacridar, 4 days compound treatment, read-out: IC50, inhibitory activity on human P-glycoprotein HEK cells (HEK-P-gp) pretreated with elacridar.

Like-named read-outs stand apart in the source and are kept apart here.

With `CN(C)c1cc(-c2cc3c(n4cnnc24)NCc2c(F)ccc4c2[C@@H](CO4)CO3)n(C)n1` [Example 91, (S)-5-(12-fluoro-7a,8,13,14-tetrahydro-7H-[1,2,4]triazolo[4′,3′:1,6]pyrido[3,2-b]benzofuro[4,3-fg][1,4]oxazonin-4-yl)-N,N,1-trimethyl-1H-pyrazol-3-amine], the IC50 lay within 100 to 500 nM.

Molecule `Cc1nccc(-c2cc3c(n4cnnc24)NCc2c(F)ccc4c2[C@@H](CO4)CO3)c1F` [Example 86, (S)-12-fluoro-4-(3-fluoro-2-methylpyridin-4-yl)-7a,8,13,14-tetrahydro-7H-[1,2,4]triazolo[4′,3′:1,6]pyrido[3,2-b]benzofuro[4,3-fg][1,4]oxazonine] gave an IC50 of 25 to 50 nM.

For `Cn1cc(Cc2cc3c(n4cnnc24)NCc2c(F)cccc2COC3)cn1` [Compound 183, 12-fluoro-4-((1-methyl-1H-pyrazol-4-yl)methyl)-6,8,13,14-tetrahydro-[1,2,4]triazolo[4′,3′:1,6]pyrido[3,2-c]benzo[g][1,5]oxazonine], the half-maximal inhibitory concentration (IC50) runs as follows: under setting [1], over 500 nM; under setting [2], over 500 nM.

For the molecule `Fc1ccc2c3c1CNc1c(cc(-c4ccnn4CC(F)(F)F)c4nncn14)OC[C@@H]3CO2` [Example 72, (S)-12-fluoro-4-(1-(2,2,2-trifluoroethyl)-1H-pyrazol-5-yl)-7a,8,13,14-tetrahydro-7H-[1,2,4]triazolo[4′,3′:1,6]pyrido[3,2-b]benzofuro[4,3-fg][1,4]oxazonine], the IC50 is 50 to 100 nM.

On to “(S)-1-(4-(12-fluoro-7a,8,13,14-tetrahydro-7H-[1,2,4]triazolo[4′,3′:1,6]pyrido[3,2-b]benzofuro[4,3-fg][1,4]oxazonin-4-yl)piperidin-1-yl)ethan-1-one [Compound 9]”, for which the IC50 is over 500 nM.

The molecule `Cn1cc(-c2cc3c(n4cnnc24)NCc2c(F)ccc4c2[C@@H](CO4)CO3)ccc1=O` [Example 69, (S)-5-(12-fluoro-7a,8,13,14-tetrahydro-7H-[1,2,4]triazolo[4′,3′:1,6]pyrido[3,2-b]benzofuro[4,3-fg][1,4]oxazonin-4-yl)-1-methylpyridin-2(1H)-one] gave an IC50 of under 25 nM.

Consider `COC(=O)N1CCC(c2cc3c(n4cnnc24)NCc2c(F)cccc2COC3)CC1` [Compound 181, methyl 4-(12-fluoro-6,8,13,14-tetrahydro-[1,2,4]triazolo[4′,3′:1,6]pyrido[3,2-c]benzo[g][1,5]oxazonin-4-yl)piperidine-1-carboxylate], for which the IC50 by setting is: under setting [1], over 500 nM; under setting [2], over 500 nM.

Take `Cc1cc(C)c(-c2cc3c(n4cnnc24)NCc2c(F)ccc4c2[C@@H](CO4)CO3)cn1` [Example 96, (S)-4-(4,6-dimethylpyridin-3-yl)-12-fluoro-7a,8,13,14-tetrahydro-7H-[1,2,4]triazolo[4′,3′:1,6]pyrido[3,2-b]benzofuro[4,3-fg][1,4]oxazonine]: the IC50 lay in the range of 50 to 100 nM.

For “(S)-12-fluoro-4-(2-methylpyridin-3-yl)-7a,8,13,14-tetrahydro-7H-[1,2,4]triazolo[4′,3′:1,6]pyrido[3,2-b]benzofuro[4,3-fg][1,4]oxazonine [Compound 8]”, the half-inhibitory concentration (IC50) was under 25 nM.

Turning to `Cn1cnc(-c2cc3c(n4cnnc24)NCc2c(F)ccc4c2[C@@H](CO4)CO3)c1` [Example 94, (S)-12-fluoro-4-(1-methyl-1H-imidazol-4-yl)-7a,8,13,14-tetrahydro-7H-[1,2,4]triazolo[4′,3′:1,6]pyrido[3,2-b]benzofuro[4,3-fg][1,4]oxazonine], the IC50 fell in the range of 25 to 50 nM.

As to `Cc1ncc(-c2cc3c(n4cnnc24)NCc2c(F)cccc2COC3)c(C)n1` [Compound 182, 4-(2,4-dimethylpyrimidin-5-yl)-12-fluoro-6,8,13,14-tetrahydro-[1,2,4]triazolo[4′,3′:1,6]pyrido[3,2-c]benzo[g][1,5]oxazonine], the IC50 runs as follows: under setting [1], over 500 nM; under setting [2], over 500 nM.
